Values quoted from earlier work as cited in article PMC13231908, “Evaluating acridones as novel therapeutics for human babesiosis” (Antimicrobial Agents and Chemotherapy, 2026).

Settings: mouse, in vivo, po, 80 mg/kg

SMILES: O=c1c2cc(F)c(Oc3ccc(OC(F)(F)F)cc3)cc2[nH]c2cc(Cl)cc(F)c12 [T226]
- AUCinf: 95.7 ng·h/mL
- AUClast: 33.9 ng·h/mL
